Test results: ChEMBL document CHEMBL1201862, “PubChem BioAssay data set” (2004)
The source made the active and inactive calls.

Tests used:
[1] = target: T1, Microphthalmia-associated transcription factor (Homo sapiens, UniProt O75030); assay: TRPM1 promoter luciferase signal decrease, dose response, MITF inhibitor project, cell-based, SK-MEL-5, cherry-picked, set 3 (AID 493073); assay type: functional
T1 sequence (O75030 whole entry): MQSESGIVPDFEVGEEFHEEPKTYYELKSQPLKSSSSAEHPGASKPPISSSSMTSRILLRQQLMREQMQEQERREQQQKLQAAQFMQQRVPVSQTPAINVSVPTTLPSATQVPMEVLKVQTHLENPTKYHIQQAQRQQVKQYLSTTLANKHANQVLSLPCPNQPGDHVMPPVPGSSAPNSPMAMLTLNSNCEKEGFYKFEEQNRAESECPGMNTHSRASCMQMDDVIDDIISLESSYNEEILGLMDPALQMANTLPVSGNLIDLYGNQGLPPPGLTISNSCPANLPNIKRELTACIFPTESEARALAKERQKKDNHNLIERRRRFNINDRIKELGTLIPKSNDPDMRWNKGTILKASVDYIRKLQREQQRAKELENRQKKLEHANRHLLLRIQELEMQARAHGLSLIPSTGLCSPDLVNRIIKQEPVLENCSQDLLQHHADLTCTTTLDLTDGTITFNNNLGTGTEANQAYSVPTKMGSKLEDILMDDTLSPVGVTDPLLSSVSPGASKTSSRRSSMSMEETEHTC

[2] = Vero cell cytotoxicity, dose response, cytotoxicity control for Vif-APOBEC3G degradation inhibitor project, Vero cells (AID 1117358); assay type: functional; conditions: Human immunodeficiency virus 1, Vero
[3] = Shn3 3'UTR reporter inhibitors, dose response, cell-based, Clone20 osteoblasts, firefly luciferase, cherry-picked (AID 624132); assay type: functional;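 note: firefly luciferase luminescence from reporter carrying the Shn3 3'UTR in osteoblasts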
[4] = control 3'UTR Renilla luciferase suppression, dose response, counter-screen for Shn3 inhibitor project, cell-based, Clone20-Shn3RL, cherry-picked (AID 624133); assay type: functional
A-375 = assay: MITF: Counter assay: A375 proliferation Measured in Cell-Based System Using Plate Reader - 2084-03_Inhibitor_Dose_DryPowder_Activity. [Related pubchem assays (depositor defined):AID488944]; assay type: functional; conditions: Homo sapiens
[5] = HepG2 cell cytotoxicity, dose response, cytotoxicity control for Shn3 inhibitor project, CellTiter-Glo, cherry-picked (AID 624134); assay type: functional, cell-based
[6] = target: Ubiquitin carboxyl-terminal hydrolase BAP1 (Homo sapiens, UniProt Q92560); assay: BAP1 deubiquitinase inhibitors, dose response, biochemical (AID 714); assay type: functional
Ubiquitin carboxyl-terminal hydrolase BAP1, sequence (Q92560 whole entry): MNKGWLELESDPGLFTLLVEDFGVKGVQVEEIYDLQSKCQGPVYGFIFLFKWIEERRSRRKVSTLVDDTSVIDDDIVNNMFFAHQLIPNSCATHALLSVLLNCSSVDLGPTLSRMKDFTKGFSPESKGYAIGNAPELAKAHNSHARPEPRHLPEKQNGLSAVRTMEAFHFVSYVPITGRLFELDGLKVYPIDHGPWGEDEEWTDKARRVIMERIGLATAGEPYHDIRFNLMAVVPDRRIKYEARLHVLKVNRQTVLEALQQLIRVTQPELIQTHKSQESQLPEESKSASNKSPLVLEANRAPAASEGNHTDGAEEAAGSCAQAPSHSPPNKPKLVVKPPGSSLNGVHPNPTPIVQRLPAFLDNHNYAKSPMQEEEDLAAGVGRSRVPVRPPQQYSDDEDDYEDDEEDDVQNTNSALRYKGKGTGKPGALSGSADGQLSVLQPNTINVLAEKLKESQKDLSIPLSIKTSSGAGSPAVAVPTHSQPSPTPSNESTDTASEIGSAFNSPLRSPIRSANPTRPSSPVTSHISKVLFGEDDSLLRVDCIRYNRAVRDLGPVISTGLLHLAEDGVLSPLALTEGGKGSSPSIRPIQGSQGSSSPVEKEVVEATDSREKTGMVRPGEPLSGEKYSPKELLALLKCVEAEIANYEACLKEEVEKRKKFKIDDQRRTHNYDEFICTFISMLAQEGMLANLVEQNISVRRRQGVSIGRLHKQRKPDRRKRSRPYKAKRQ

Streptococcus = assay: Group A Streptococcus viability loss, dose response, counter-screen for streptokinase expression inhibitor project, luminescence, BacTiterGlo (AID 1915); assay type: functional, organism-based;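 note: potency for reduction of bacterial viability or growth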
Streptokinase A = target: T2, Streptokinase A (Streptococcus pyogenes serotype M1, UniProt P10520); assay: S. pyogenes streptokinase expression inhibitors, potency, dose response, plasminogen activation absorbance, OD405 (AID 1914); assay type: functional, Streptococcus pyogenes M1 GAS;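 note: secreted streptokinase activity via plasminogen activation per viability signal from cell pellet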
T2 sequence (P10520 whole entry): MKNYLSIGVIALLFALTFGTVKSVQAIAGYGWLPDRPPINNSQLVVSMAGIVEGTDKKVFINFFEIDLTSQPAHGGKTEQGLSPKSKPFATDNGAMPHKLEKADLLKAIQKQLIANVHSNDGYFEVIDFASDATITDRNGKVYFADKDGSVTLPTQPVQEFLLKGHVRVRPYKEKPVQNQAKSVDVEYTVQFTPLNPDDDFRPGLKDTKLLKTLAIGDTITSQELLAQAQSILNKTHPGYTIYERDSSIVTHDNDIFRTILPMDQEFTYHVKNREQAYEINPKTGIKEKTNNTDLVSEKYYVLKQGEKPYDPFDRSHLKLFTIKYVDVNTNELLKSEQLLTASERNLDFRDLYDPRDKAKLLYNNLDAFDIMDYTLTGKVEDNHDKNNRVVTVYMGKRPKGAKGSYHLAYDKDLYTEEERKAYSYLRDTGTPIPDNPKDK

Caspase-6 = Caspase-6 (Homo sapiens, UniProt P55212); assay: human caspase-6 inhibitors, dose response, biochemical, VEID-R110 fluorescence, cherry-pick (AID 720632)
Caspase-6, sequence (P55212 24-179 limits assumed): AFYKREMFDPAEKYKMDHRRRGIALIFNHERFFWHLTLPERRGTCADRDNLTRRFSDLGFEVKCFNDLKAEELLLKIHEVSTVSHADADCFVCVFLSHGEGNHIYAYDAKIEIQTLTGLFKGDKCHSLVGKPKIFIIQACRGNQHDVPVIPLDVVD
Caspase-6, sequence (P55212 194-293 limits assumed): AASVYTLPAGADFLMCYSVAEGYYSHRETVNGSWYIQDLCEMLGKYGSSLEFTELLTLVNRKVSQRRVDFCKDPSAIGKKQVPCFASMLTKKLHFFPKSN

[7] = tested on: Streptococcus sp. 'group A'; assay: growth inhibition of control SK(-) GAS strain, dose response, counter-screen for streptokinase expression inhibitor project, luminescence, kanamycin, BacTiterGlo, confirmation (AID 1900); assay type: functional, organism-based
[8] = target: Sphingosine 1-phosphate receptor 2 (Homo sapiens, UniProt O95136); assay: Dose Response Cell Based Assay for Agonists of the S1P2 Receptor. [Related pubchem assays: 729, 736, 843 ]; assay type: functional
Sphingosine 1-phosphate receptor 2, sequence (O95136 whole entry): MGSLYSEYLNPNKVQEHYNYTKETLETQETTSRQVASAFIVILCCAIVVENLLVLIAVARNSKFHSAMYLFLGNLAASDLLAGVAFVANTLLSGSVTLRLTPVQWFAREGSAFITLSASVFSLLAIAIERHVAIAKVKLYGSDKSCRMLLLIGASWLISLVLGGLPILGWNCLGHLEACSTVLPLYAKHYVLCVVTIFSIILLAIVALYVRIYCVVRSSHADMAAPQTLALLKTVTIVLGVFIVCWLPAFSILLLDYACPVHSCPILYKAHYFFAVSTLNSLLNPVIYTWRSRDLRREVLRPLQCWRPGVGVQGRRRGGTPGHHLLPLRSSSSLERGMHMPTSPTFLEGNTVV

[9] = target: T3, Methionyl-tRNA synthetase, putative (Trypanosoma brucei brucei, UniProt Q38C91); assay type: functional, Trypanosoma brucei brucei strain 927/4 GUTat10.1
T3 sequence (Q38C91 whole entry): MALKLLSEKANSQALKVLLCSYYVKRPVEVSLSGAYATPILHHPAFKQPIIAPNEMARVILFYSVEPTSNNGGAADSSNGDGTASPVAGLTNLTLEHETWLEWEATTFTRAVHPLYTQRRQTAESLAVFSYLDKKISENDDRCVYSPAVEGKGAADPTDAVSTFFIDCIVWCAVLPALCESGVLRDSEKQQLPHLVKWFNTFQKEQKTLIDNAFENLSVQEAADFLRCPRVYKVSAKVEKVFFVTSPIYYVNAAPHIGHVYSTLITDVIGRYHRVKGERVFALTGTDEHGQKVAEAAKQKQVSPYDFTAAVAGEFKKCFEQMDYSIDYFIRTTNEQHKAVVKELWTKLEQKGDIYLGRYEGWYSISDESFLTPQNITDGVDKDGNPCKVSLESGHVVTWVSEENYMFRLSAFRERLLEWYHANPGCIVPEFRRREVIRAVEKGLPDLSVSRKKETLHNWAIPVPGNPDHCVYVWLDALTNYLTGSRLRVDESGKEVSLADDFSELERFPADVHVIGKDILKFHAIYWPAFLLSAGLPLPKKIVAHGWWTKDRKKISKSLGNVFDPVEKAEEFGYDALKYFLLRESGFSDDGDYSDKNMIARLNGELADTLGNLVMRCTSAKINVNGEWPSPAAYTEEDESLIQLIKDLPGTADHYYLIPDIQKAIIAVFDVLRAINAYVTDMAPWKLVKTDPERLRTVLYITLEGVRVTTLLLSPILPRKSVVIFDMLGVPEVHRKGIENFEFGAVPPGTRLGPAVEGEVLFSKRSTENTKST

[10] = target: T3, Methionyl-tRNA synthetase, putative; assay type: functional, Trypanosoma brucei brucei strain 927/4 GUTat10.1; remark: listed apart in the source
[11] = Late stage counterscreen for inhibitors of Trypanosoma brucei methionyl tRNA synthetase (MetRS): Luminescence-based cell-based high throughput dose response assay to identify compounds that are cytotoxic to Jurkat human T lymphocyte cells.; assay type: functional
[12] = Counterscreen for inhibitors of Trypanosoma brucei methionyl tRNA synthetase (MetRS): Luminescence-based cell-based high throughput dose response assay to identify compounds that are cytotoxic to Jurkat human T lymphocyte cells.; assay type: functional
Transthyretin = Transthyretin (Homo sapiens, UniProt P02766); assay: Luminescence-based cell-based high throughput dose response assay to identify activators of Transthyretin (TTR) transcription.; assay type: functional
[13] = target: T4, Oxysterols receptor LXR-beta (Homo sapiens, UniProt P55055); assay type: functional, cell-based;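 note: Cell-based luminescence dose-response assay of agonist activity at LXR, run as a confirmatory counterscreen to a daf-12 agonist screen; HEK293 cells with Gal4-LXR fusion and GAL4-driven luciferase reporter; agonist potency from rising luciferase signal of a Gal4-LXR reporter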
T4 sequence (P55055 whole entry): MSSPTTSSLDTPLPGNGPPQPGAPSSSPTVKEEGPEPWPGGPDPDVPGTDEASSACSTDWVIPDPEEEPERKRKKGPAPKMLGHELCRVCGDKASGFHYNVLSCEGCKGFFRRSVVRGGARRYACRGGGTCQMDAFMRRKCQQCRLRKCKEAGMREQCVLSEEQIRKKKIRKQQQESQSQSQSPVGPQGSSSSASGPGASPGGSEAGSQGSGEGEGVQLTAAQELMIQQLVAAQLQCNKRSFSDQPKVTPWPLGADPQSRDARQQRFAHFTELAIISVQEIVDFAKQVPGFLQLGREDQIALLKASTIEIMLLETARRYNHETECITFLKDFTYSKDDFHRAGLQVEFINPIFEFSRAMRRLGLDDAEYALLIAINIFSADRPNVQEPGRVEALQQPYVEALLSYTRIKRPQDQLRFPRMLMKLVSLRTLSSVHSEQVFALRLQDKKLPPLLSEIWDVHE

Question: Which results are given for `COc1cccc(CNCCc2c[nH]c3ccccc23)c1OCc1ccccc1`?
Answer: AC50 [1]: 14.4 µM (active); CC50 [2]: > 40 µM (active); AC50 [3]: 4.09 µM (active); AC50 [4]: 9.39 µM (active); AC50 (A-375): 36.2 µM (active); AC50 [5]: 11.8 µM (active)

Question: For `O=c1[nH]c(SCc2ccc(F)cc2)nc2c1cnn2-c1ccc(F)cc1`, which IC50 [6] is on record?
Answer: > 50 µM (not active)

Question: Which results are given for `Oc1ccc(Cl)cc1CNc1cccc2cccnc12`?
Answer: EC50 (Streptococcus): > 150 µM (not active); EC50 (Streptokinase A): > 150 µM (not active); AC50 (Caspase-6): 48.4 µM (active); EC50 [7]: 23.9 µM (active)

Question: Which EC50 [8] does the source give for `CC(C)CCNC(=O)c1c(N)n(Cc2ccc3c(c2)OCO3)c2nc3ccccc3nc12` here?
Answer: 1.69 µM (active)

Question: For `COc1ccccc1NS(=O)(=O)c1cccc(NC(=O)Nc2ccccc2)c1`, which IC50 [9] is on record?
Answer: 0.644 µM (active)

Question: What about the IC50 [10] of the same compound?
Answer: 1.27 µM (active)

Question: And the IC50 [11]?
Answer: 64.2 µM (inactive)

Question: What about the IC50 [12] of the same compound?
Answer: 48.8 µM (inactive)

Question: With `N=c1ccn(CC(=O)NC(N)=O)c2ccccc12` as the compound, how does the EC50 (Transthyretin) read?
Answer: > 167 µM (inactive)

Question: Which EC50 (cells) does the source give for `Cc1csc(SCC(=O)Nc2sccc2C#N)n1` here?
Answer: > 67.6 µM (inactive)

Question: And the EC50 [13]?
Answer: > 67.6 µM (inactive)
